Test results as given in US10000438B2, “Small molecule inhibitors of TRPA1” (B.R.A.I.N. Biotechnology Research and Information Network AG, priority 2011, dated 2018).
pIC50: −log10 of the molar value. Read-outs that look alike come from different tables or passages of the source.

Key:
[1] = target: T1, TRPA1 (Homo sapiens, UniProt O75762); experiment: Cell-based (label-free) impedance assay in HaCaT cells
[2] = target: T1, TRPA1; experiment: Cell-based calcium assay (Fluo-4 fluorescence) in HEK293 cells expressing recombinant human TRPA1; design: expressed in transfected cells
Method: The HEK293 cell line expressing recombinant human TRPA1 under the control of a tetracycline-regulated promoter was used in this assay (cf. example 2). Functional modulation of TRPA1 by the tested compounds was measured and quantified using the calcium sensitive fluorescent probe […] on a fluorescence microplate reader. Activation of TRPA1 by an agonist led to an increase in the intracellular calcium concentration and thus an increase in fluorescence intensity.
Procedure: Cells were cultured in DMEM (high glucose) supplemented with tetracycline-free FCS (10% v/v), L-glutamine (4 mM), blasticidin (15 μg/ml) and hygromycin (100 μg/mL) in a water-saturated atmosphere at 37° C. and 5% CO2. Cells were seeded onto 96-well clear-bottom black-walled assay plates at a density of 70,000 cells per well in 100 μl of cell culture medium. Expression of the ion channel was induced or not induced by addition of tetracycline (1 μg/ml final concentration) to the cell culture medium (while seeding the cells). Calcium influx into the living cells due to channel activation was monitored 24 h later using the calcium sensitive fluorescent probe […] on a fluorescence microplate reader (FlexStation® system, Molecular Devices). Therefore 100 μl Krebs-HEPES (KH) buffer (118 mM NaCl; 4.7 mM KCl; 1.3 mM CaCl2; 1.2 mM MgSO4; 1.2 mM KH2PO4; 4.2 mM NaHCO3; 10 mM Hepes, pH 7.4) supplemented with sulfinpyrazone (250 μM) and […] (4 μM) were added and the cells were incubated for an additional hour in a water-saturated atmosphere at 37° C. and 5% CO2.
Measurement of agonistic activity: Medium was replaced with 200 μl KH buffer supplemented with sulfinpyrazone (250 μM). Subsequently, 50 μl KH buffer supplemented with the agonists or control substances were added. Changes in fluorescence were recorded at 20-26° C.
Measurement of antagonistic activity (screening): Medium was replaced with 150 μl KH buffer supplemented with sulfinpyrazone (250 μM). Subsequently, 50 μl KH buffer supplemented with the screening compounds (50 μM; leading to a final concentration of 10 μM under measurement conditions) or control substances were added and the cells were incubated for 10 min. under assay conditions in the microplate reader. Changes in fluorescence were recorded at 20-26° C. after addition of 50 μl KH buffer supplemented with the TRPA1 agonist menthol (175 μM; leading to a final concentration of 35 μM under measurement conditions). The published TRPA1 antagonist AP-18 (Petrus, 2007) was used as a control for TRPA1-specific […] activity. Subsequently, the inventive compounds were tested for their capacity to reduce signals triggered by addition of propylparaben (EC80=80 μM), retinol (EC80=150 μM), and allyl isothiocyanate (EC80=5 μM) (cf. Table 2).
Analysis: Calcium mobilization was quantified as the change of peak fluorescence (ΔF) over the baseline level (F). The data was analyzed with the software of the microplate reader. Potential TRPA1 antagonists were tested in an effective range of 0.1-50 μM for their capacity to reduce the menthol-evoked signal.

[3] = target: T2, human TRPM8 (Homo sapiens, UniProt Q7Z2W7); experiment: Test for cross-selectivity on TRPM8: calcium assay in HEK293 cells expressing recombinant human TRPM8; type: cell-based
T2 construct: expressed in transfected cells; host or cells: HEK293 (tetracycline-regulated promoter)
T2 sequence (Q7Z2W7 whole entry): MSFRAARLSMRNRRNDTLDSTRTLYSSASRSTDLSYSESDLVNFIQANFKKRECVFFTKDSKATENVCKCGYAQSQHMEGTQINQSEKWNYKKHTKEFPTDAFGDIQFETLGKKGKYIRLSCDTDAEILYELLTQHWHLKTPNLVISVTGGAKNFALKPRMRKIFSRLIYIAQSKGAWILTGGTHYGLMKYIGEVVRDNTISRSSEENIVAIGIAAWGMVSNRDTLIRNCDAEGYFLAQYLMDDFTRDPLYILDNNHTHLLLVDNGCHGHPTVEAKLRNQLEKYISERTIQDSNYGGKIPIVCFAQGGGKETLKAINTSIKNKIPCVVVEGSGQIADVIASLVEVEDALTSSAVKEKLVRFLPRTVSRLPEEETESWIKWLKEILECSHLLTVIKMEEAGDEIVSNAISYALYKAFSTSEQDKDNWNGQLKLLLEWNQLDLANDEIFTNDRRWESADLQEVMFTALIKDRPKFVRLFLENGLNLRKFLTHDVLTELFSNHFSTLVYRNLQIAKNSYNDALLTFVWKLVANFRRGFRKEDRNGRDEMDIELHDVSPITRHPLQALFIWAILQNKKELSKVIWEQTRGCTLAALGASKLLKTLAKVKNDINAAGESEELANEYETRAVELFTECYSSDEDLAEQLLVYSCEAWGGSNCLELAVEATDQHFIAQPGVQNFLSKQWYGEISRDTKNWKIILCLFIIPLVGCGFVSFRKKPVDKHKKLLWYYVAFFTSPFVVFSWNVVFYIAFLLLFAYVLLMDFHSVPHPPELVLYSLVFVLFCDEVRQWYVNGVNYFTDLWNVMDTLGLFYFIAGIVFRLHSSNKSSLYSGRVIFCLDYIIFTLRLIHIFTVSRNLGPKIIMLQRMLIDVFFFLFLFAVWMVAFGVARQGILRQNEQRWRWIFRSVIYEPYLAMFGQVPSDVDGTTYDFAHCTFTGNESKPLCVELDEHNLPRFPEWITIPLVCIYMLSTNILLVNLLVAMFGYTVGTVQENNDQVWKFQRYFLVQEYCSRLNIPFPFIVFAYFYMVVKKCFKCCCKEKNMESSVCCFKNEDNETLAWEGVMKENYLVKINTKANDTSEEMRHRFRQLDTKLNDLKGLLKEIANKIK
Method: The test for cross-selectivity of the compounds on TRPM8 was performed in much the same way as the initial screening on TRPA1 (described in example 3). A HEK293 cell line expressing recombinant human TRPM8 under the control of a tetracycline-regulated promoter was used. Cells were cultured under the conditions mentioned in example 3. Functional modulation of TRPM8 was measured and quantified using the calcium sensitive fluorescent probe Fluo-4 AM on a fluorescence microplate reader. The assay was performed as described in example 3. Changes in fluorescence were recorded at 26-30° C. after addition of the compounds and/or the TRPM8 agonist menthol (EC80=12 μM). Dose-response curves are shown in FIGS. 5 to 9 (calcium assay) against menthol, which is known to trigger both TRPA1 as well as TRPM8. In particular, the antagonistic activity of compound I.3, II.3, III.3, IV.3 and V.3 at TRPA1 (open circles, continuous line) as well as the antagonistic activity of said compounds at TRPM8 (filled squares, dotted line) was measured and compared. Activation of the two ion channels was triggered by addition of menthol (EC80[TRPA1]=35 μM and EC80[TRPM8]=12 μM). The receptor signals were normalized to the pure menthol signal in each case.

[4] = target: T1, TRPA1; experiment: Blinded in vivo study on the lid-cheek junction, stinging/burning induced by flufenamic acid; design: from tissue; host or cells: facial skin (lid-cheek junction) of human volunteers; details: compound 0.05% pre-incubated on one side of face, placebo on other; flufenamic acid 0.75%; 16 persons, two felt no stimulus
Method: Antagonistic in vivo activity at TRPA1 was tested in a blinded study on the lid-cheek junction of 16 test persons. The ion channel was stimulated using a known TRPA1 agonist: flufenamic acid, a member of the group of NSAIDs (non-steroidal anti-inflammatory drugs) (Hu et al., 2010). The concentration of flufenamic acid was adjusted to a level that induced a pronounced stinging/burning sensation in the majority of the testers (0.75%).
Procedure: One side of the face (the lid-cheek junction) was pre-incubated with the antagonist (compound I.3, 0.05%)—the other side with placebo. Afterwards, flufenamic acid was applied to both sides simultaneously. Testers were asked several questions regarding their individual perception of irritation.
Analysis: Testers were asked if they could feel the NSAID-triggered stinging/burning. The strength of the stimulus was not judged. Then they were asked if they could perceive a difference between the two areas. If the answer was yes, they were asked which side was perceived as more pleasant. The antagonistic effect was graded in three categories: no reduction, reduction and strong reduction of the irritation. 10 out of 14 testers perceived a soothing effect by the use of the antagonist (two individuals felt no stimulus at all).

[5] = agonist allyl isothiocyanate at EC80 (5 μM), read-out: Antagonistic activity (IC50) against Allyl isothiocyanate
[6] = agonist menthol at EC80 (35 μM final), read-out: Antagonistic activity (IC50) against Menthol
[7] = agonist propylparaben at EC80 (80 μM), read-out: Antagonistic activity (IC50) against Propylparaben
[8] = agonist retinol at EC80 (150 μM), read-out: Antagonistic activity (IC50) against Retinol

T1 sequence (O75762 whole entry): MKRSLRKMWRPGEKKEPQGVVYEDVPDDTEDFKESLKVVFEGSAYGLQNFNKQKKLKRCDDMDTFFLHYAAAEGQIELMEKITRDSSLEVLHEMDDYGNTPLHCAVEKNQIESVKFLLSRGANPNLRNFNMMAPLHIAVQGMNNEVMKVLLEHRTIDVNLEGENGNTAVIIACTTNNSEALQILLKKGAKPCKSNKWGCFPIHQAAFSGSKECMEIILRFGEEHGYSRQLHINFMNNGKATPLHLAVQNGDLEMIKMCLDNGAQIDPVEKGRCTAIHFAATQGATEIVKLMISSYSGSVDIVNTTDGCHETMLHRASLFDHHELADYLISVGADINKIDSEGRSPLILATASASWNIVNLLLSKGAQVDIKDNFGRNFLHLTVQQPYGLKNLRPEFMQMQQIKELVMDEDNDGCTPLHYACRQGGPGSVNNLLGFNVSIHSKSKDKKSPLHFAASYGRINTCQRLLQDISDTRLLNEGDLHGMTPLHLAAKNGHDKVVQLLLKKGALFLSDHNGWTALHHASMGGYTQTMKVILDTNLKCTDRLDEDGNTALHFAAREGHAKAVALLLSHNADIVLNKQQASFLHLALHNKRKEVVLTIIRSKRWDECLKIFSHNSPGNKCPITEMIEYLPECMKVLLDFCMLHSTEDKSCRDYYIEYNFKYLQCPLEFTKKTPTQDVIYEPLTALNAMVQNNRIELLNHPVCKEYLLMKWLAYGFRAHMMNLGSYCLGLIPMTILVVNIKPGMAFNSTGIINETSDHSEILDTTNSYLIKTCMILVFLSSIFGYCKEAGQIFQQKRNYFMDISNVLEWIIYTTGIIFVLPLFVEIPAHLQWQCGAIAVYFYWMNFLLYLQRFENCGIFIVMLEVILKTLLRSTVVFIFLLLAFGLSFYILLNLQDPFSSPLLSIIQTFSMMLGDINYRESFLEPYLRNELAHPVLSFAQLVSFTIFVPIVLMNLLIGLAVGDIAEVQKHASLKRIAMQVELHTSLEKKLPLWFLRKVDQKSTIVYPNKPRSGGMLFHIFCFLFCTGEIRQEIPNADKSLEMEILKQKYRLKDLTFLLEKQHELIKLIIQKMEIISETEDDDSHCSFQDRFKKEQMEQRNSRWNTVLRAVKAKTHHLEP

Agonistic efficacy at TRPA1 (EC80) [1] [µM]	pIC50 [2, 5]	pIC50 [2, 6]	pIC50 [2, 7]	pIC50 [2, 8]	Testers who perceived a soothing effect by the use of the antagonist [4]	Compound	Agonistic efficacy at TRPA1 (EC80) [2] [µM]	Agonistic efficacy at TRPM8 (EC80) [3] [µM]
200						CCCOC(=O)c1ccc(O)cc1 [propylparaben, reference compound]	80	
						C=CCN=C=S [allyl isothiocyanate, reference compound]	5	
	4.59	5.35	4.59	4.85		CC(C)c1ccc2c(c1)CCC1[C@](C)(C(=O)O)CCC[C@]21C (some centres unmarked) [Compound V.3]		
	5.92	7.00	6.40	6.40		COC(=O)c1ccc(/C=C(\C#N)C(=O)Nc2ccccc2F)cc1 [Compound III.3]		
						CC1CCC(C(C)C)C(O)C1 (centres unmarked) [menthol, 2-isopropyl-5-methyl-cyclohexanol, reference compound]	35	12
	5.60	5.46	5.33	5.47	10 out of 14	COc1cc(C(=O)OC2CC3CCC2(C)C3(C)C)ccc1OC(C)=O (centres unmarked) [Compound I.3]		
						CC1=C(/C=C/C(C)=C/C=C/C(C)=C/CO)C(C)(C)CCC1 [retinol, reference compound]	150	
	5.46	6.52	5.37	5.48		Cc1cc(/C=C2\C(=N)N3N=C(CC(=O)N4CCCC4)SC3=NC2=O)c(C)n1-c1cccc(Cl)c1 [Compound IV.3]		
